Values belong to the compound of their own block, whether it stands above or below them. Residues, ends and D or L forms follow the SMILES beside them.
How the values were obtained:
[1] = biological target: T1, 14-3-3 protein sigma (Homo sapiens) (UniProt P31947); assay: Induction of human 14-3-3sigma binding to TASK-3 using FAM-370RRK-pS-V374-COOH by fluorescence polarization assay relative to control
T1 sequence (whole entry): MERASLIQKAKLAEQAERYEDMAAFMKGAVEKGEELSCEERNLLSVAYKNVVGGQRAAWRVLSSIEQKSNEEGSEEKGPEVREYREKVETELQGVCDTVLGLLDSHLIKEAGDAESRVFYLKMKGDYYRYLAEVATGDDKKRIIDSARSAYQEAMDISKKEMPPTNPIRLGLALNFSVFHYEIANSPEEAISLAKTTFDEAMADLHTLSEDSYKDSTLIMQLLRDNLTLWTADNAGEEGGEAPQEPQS

[2] = biological target: T2, 14-3-3 protein beta/alpha (Homo sapiens, UniProt P31946); assay: Binding affinity to GST-tagged 125I-labelled 14-3-3beta (unknown origin) expressed in Escherichia coli by solid phase assay
T2 sequence (P31946 whole entry): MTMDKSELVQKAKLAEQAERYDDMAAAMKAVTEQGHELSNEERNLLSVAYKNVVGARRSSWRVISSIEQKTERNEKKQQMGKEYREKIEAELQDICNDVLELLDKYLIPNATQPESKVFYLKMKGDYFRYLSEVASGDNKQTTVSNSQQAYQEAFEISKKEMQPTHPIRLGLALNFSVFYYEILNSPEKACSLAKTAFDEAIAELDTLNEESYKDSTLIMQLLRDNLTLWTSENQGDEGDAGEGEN

14-3-3 protein theta = biological target: T3, 14-3-3 protein theta (Homo sapiens, UniProt P27348); assay: Binding affinity to GST-tagged 125I-labelled full length human 14-3-3tau expressed in Escherichia coli by solid phase assay
T3 sequence (P27348 whole entry): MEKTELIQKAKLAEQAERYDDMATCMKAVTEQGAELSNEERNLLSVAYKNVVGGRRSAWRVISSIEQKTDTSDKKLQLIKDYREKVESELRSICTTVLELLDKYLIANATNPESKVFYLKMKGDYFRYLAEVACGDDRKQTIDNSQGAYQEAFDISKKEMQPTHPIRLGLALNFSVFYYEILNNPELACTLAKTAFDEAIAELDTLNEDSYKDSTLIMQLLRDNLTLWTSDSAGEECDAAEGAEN

14-3-3 protein eta = biological target: T4, 14-3-3 protein eta (Homo sapiens, UniProt Q04917); assay: Binding affinity to GST-tagged 125I-labelled 14-3-3eta (unknown origin) expressed in Escherichia coli by solid phase assay
T4 sequence (Q04917 whole entry): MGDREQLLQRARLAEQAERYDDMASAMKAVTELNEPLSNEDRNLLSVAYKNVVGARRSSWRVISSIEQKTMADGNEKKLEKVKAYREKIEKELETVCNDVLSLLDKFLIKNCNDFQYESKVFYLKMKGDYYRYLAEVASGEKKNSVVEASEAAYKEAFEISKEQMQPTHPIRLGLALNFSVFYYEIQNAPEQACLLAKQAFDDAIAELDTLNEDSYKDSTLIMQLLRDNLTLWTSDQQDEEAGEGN

[3] = biological target: Peptidyl-prolyl cis-trans isomerase NIMA-interacting 1 (Homo sapiens) (UniProt Q13526); assay: Inhibition of Pin1 (1 to 162 residues) (unknown origin) using 5-carboxyfluorescein-GHFDpTYLI-RR-OH as substrate at 40 uM incubated for 1 hr prior to addition of substrate by fluorescence polarization assay
Sequence of Peptidyl-prolyl cis-trans isomerase NIMA-interacting 1 (Homo sapiens) (Q13526 whole entry, the tested form may be a part): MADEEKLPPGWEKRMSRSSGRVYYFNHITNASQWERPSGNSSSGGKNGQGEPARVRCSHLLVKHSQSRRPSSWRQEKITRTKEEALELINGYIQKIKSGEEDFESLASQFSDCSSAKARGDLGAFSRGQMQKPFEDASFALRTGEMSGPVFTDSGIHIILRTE

[4] = biological target: Serine/threonine-protein kinase PLK3 (Homo sapiens, UniProt Q9H4B4); assay: Inhibition of human Plk3 PBD (335 to 646 residues) using 5-carboxyfluorescein-GPLATSpTPKNG-OH as substrate incubated for 1 hr prior to addition of substrate by fluorescence polarization assay
Sequence of Serine/threonine-protein kinase PLK3 (Q9H4B4 whole entry, the tested form may be a part): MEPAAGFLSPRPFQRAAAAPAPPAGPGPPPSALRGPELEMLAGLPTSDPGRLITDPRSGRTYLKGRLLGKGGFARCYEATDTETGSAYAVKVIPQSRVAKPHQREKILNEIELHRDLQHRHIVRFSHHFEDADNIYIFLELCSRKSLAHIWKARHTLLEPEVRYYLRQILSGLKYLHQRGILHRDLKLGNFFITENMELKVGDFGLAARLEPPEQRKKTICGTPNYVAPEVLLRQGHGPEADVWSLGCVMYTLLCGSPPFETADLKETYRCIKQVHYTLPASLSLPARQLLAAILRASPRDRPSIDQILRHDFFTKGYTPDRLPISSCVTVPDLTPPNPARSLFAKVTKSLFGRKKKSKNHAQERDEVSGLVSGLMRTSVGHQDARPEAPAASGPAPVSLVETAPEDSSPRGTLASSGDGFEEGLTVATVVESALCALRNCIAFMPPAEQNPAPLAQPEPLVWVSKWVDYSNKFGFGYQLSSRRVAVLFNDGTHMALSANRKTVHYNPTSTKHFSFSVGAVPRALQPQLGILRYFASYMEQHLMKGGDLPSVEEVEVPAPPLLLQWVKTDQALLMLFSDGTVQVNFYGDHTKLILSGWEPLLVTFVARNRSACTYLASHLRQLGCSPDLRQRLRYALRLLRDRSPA

[5] = biological target: Serine/threonine-protein kinase PLK1 (Homo sapiens, UniProt P53350); assay: Inhibition of human Plk1 PBD (326 to 603 residues) using 5-carboxyfluorescein-GPMQSpTPLNG-OH as substrate incubated for 1 hr prior to addition of substrate by fluorescence polarization assay
Sequence of Serine/threonine-protein kinase PLK1 (P53350 whole entry, the tested form may be a part): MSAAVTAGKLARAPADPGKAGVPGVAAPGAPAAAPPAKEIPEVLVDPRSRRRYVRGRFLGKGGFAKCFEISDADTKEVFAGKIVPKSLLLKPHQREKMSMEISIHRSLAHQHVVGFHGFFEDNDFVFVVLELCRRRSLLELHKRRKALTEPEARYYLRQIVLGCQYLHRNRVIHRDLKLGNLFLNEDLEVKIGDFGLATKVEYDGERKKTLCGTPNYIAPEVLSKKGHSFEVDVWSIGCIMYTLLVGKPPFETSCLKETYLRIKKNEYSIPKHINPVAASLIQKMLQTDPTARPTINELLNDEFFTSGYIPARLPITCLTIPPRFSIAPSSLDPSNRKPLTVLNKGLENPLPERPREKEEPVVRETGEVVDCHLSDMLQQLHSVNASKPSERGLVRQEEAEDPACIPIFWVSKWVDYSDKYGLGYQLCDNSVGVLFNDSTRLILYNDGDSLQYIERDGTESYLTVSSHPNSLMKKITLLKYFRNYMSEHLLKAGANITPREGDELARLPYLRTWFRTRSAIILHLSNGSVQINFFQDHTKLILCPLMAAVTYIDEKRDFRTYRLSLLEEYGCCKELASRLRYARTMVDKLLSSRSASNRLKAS

[6] = biological target: Serine/threonine-protein kinase PLK2 (Homo sapiens, UniProt Q9NYY3); assay: Inhibition of human Plk2 PBD (355 to 685 residues) using 5-carboxyfluorescein-GPMQTSpTPKNG-OH as substrate incubated for 1 hr prior to addition of substrate by fluorescence polarization assay
Sequence of Serine/threonine-protein kinase PLK2 (Q9NYY3 whole entry, the tested form may be a part): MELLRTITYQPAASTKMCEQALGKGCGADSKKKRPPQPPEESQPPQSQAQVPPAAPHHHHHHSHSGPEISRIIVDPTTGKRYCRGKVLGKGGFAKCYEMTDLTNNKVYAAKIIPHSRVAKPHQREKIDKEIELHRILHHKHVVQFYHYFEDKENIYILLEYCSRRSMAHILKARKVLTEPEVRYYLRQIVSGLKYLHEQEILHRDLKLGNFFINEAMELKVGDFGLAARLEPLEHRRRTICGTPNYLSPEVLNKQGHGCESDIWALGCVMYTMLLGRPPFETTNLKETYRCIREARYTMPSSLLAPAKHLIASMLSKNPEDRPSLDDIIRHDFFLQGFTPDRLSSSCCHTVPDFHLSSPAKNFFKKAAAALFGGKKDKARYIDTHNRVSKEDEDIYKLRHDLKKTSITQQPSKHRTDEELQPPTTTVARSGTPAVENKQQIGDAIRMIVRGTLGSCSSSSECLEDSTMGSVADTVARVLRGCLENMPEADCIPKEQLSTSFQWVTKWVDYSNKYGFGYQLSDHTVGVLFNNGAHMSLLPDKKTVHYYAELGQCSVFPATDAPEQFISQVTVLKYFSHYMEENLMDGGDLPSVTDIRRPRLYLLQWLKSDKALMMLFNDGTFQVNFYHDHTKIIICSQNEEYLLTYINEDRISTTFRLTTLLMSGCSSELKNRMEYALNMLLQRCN

[7] = biological target: Serine/threonine-protein kinase Chk2 (Homo sapiens) (UniProt O96017); assay: Inhibition of Chk2 FHA (1 to 225 residues) (unknown origin) using 5-carboxyfluorescein-GHFDpTYLI-RR-OH as substrate at 40 uM incubated for 1 hr prior to addition of substrate by fluorescence polarization assay
Sequence of Serine/threonine-protein kinase Chk2 (Homo sapiens) (O96017 whole entry, the tested form may be a part): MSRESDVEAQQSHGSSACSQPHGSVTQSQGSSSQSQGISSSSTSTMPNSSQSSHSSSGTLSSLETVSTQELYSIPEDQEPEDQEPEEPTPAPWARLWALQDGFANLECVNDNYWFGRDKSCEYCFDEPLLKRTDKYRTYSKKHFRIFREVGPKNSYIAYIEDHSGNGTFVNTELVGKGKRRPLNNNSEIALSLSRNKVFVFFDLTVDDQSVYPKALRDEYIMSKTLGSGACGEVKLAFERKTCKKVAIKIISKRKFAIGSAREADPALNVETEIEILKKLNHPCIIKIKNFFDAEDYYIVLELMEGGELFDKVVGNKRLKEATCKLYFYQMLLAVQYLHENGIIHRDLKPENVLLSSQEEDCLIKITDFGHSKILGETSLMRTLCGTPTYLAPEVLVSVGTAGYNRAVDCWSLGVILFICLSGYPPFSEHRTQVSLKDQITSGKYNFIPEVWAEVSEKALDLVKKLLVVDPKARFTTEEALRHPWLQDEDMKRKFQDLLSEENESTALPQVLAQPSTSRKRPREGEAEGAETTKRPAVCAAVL

14-3-3 protein sigma = biological target: T5, 14-3-3 protein sigma (Homo sapiens, UniProt P31947); assay: Inhibition of 14-3-3sigma (unknown origin) assessed as reduction in 14-3-3sigma- mediated increase in MMP1 mRNA by cell based assay
T5 sequence (P31947 whole entry): T1 sequence (whole entry)

Structure (SMILES): COC[C@H]1CC[C@@H]2/C1=C\[C@]1(C)C(=C(C(C)C)[C@@H]3CCO[C@@H]31)[C@@H](O[C@H]1O[C@@H]3COC(C)(C)O[C@H]3[C@H](O)[C@H]1O)[C@H](O)[C@@H]2C
fold change (FC) [1]: 19

Structure (SMILES): CSCC[C@H](NC(=O)[C@H](CC(N)=O)NC(=O)[C@H](C)NC(=O)[C@H](CCC(=O)O)NC(=O)[C@H](CC(C)C)NC(=O)[C@H](CC(=O)O)NC(=O)[C@H](CC(C)C)NC(=O)[C@H](Cc1c[nH]c2ccccc12)NC(=O)[C@H](CO)NC(=O)[C@H](CC(C)C)NC(=O)[C@H](CC(=O)O)NC(=O)[C@H](CCCNC(=N)N)NC(=O)[C@@H]1CCCN1C(=O)[C@@H](NC(=O)[C@H](CS)NC(=O)[C@H](Cc1cnc[nH]1)NC(=O)[C@@H]1CCCN1)C(C)C)C(=O)N[C@@H](CS)C(=O)N[C@@H](CC(C)C)C(=O)N1CCC[C@H]1C(=O)O (H-PHCVPRDLSWLDLEANMCLP-OH)
Kd [2]: 70 nM
Kd (14-3-3 protein theta): 70 nM
Kd (14-3-3 protein eta): 70 nM

inhibition [3]: 32%
IC50 [4]: 3000 nM
IC50 [5]: 3200 nM
IC50 [6]: 1700 nM
inhibition [7]: 35%
Structure (SMILES): COc1ccc(Br)cc1/C=c1\sc2nc(=O)c(C)nn2c1=O

IC50 (14-3-3 protein sigma): 5000 nM
Structure (SMILES): O=C(COc1ccccc1P(=O)(O)O)Nc1cccc(Cl)c1Cl

Reference: ChEMBL document CHEMBL3813646, “Small molecules that target phosphorylation dependent protein-protein interaction” (Bioorg Med Chem, 2016)
